In patent US5407950A, “Arylalkanoylamine derivative and drug containing the same” (priority 1990, dated 1995):
Where two headings read alike, the source gives them in different places.

Key:
[1] = tested on: ICR male mice; assay: Anti-hypoxic activity (Test Example 2), survival time under 4% O2 / 96% N2; assay type: in vivo; conditions: 100 mg/kg, intraperitoneal, 30 min before gas; control = 100
Description: Groups of ICR male mice (Charles River Co.), age 4 to 5 weeks, each group consisting of 10 mice and each mouse having been fasted for 24 hours, were used for the test. Mice were placed in a transparent desiccator (diameter: 19 cm, height: 30 cm) made of synthetic resin and having 2 valves, one at the upper portion and the other at the lower portion, for replacing the gas therein. […] The time measured was taken as the survival time.
Each tested compound suspended in an solvent was intraperitoneally administered 30 minutes before the start of the mixed gas feeding. A group of mice to which only the solvent was intraperitoneally administered was used as a control.
The anti-hypoxic activity was determined according to the following equation: [formula]

[2] = biological target: T1, prolyl endopeptidase from canine brain (Canis lupus familiaris, UniProt A0A8I3N6C8); assay: Inhibitory activity against prolyl endopeptidase from brain (Test Example 1); assay type: biochemical
T1 construct: A prolyl endopeptidase was prepared from canine brains; from tissue; host or cells: canine brain
T1 sequence (A0A8I3N6C8 1-710): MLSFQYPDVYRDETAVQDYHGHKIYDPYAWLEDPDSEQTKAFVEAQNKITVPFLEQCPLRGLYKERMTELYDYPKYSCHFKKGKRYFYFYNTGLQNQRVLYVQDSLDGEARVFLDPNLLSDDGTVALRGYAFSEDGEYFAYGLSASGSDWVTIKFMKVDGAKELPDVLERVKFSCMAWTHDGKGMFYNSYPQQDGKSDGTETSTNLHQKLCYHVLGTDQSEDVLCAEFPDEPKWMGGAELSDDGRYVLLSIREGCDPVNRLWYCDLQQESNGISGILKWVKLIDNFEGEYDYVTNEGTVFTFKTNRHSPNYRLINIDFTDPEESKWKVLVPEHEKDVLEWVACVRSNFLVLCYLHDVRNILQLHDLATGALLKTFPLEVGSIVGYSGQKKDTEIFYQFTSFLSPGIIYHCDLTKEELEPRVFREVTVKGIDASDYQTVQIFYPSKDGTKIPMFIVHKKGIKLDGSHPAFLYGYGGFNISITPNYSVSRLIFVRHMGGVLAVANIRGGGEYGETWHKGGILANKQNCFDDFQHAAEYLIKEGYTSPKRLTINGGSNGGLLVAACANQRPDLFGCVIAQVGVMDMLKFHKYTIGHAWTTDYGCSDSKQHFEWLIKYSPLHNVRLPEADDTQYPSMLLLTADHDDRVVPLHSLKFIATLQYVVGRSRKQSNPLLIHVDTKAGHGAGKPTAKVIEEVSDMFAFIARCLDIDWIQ
Description: Following buffer solutions A and B were used for the measurement.
Buffer A: 20 mM Tris-HCl buffer (pH 7.0)
Buffer B: Buffer A containing 0.1% gelatin, 1 mM EDTA, 1 mM 2-mercaptoethanol.
Dilution of the prolyl endopeptidase preparation with Buffer B to a concentration of 0.4 units/ml was done, and the resulting solution was defined as enzyme solution. To 940 μl of Buffer A was added 50 μl of the enzyme solution, followed by incubating at 37° C. for 10 minutes, to which was added 10 μl of a solution of a sample compound dissolved in dimethyl sulfoxide, and stirred and mixed together, followed by staying at 37° C. for ten minutes. To the mixture was added 100 μl of carbobenzoxyglycylprolyl p-nitroanilide dissolved in 40% dioxane to a final concentration of 2.5 mM, for reaction at 37° C. for 10 minutes, to which was added 100 μl of 50% acetic acid containing 10% Triton X-100, thereby terminating the reaction.
For controls, dimethyl sulfoxide was added at the same amount (10 μl) instead of the solution of the sample compound; for blind tests, dimethyl sulfoxide and Buffer B were added instead of a sample compound and the enzyme solution, respectively, at the same amounts for effecting the same procedure.

[3] = tested on: ICR mice; assay: Toxicity test; Parenteral administration (Test Example 4); assay type: in vivo; conditions: 300 mg/kg parenteral, 7 days observation
Description: Test Example 4 (Toxicity test; Parenteral administration)
Ten ICR mice (Charles River, Co.), male, aged 4 to 5 weeks, were employed per group. The compounds of Examples 1, 5, 8 and 12 were separately suspended in 10% gum arabic, and then, they were individually administered parenterally at a dose of 300 mg/kg for subsequent observation for 7 days. As a result, no death was counted under the above conditions.

[4] = tested on: Male ICR mice; assay: Toxicity test; Oral administration (Test Example 5); assay type: in vivo; conditions: 1,000 mg/kg oral, 7 days observation
Description: Test Example 5 (Toxicity test; Oral administration)
Five male ICR mice (Charles River, Co.) of age 5 weeks, were employed per group. The compound of Example 22 was suspended in a solvent, which was then administered orally at a dose of 1,000 mg/kg for subsequent observation for 7 days. As a result, no death was counted under the above conditions.

[5] = canine brain enzyme, carbobenzoxyglycylprolyl p-nitroanilide substrate, 37° C., pH 7.0, read-out: Inhibition Potency IC50

SMILES	Anti-hypoxic Activity [1] [%]	death within 7 days (parenteral) [3]	IC50 [2, 5] [µM]	other results
COc1ccc(C(=O)N2CCCC2=O)cc1 [Aniracetam, reference compound]	115	–	–	IC50 [2]: > 1000 µM
O=C([C@@H]1CSCN1C(=O)CC1Cc2ccccc2C1)N1CCC[C@H]1CO [Example 1, 1-[3-(Indan-2-ylacetyl)-L-thioprolyl]-L-prolinol]	–	no death	–	–
O=C[C@@H]1CCCN1C(=O)[C@@H]1CSCN1C(=O)CC1Cc2ccccc2C1 [Example 2, 1-[3-(Indan-2-ylacetyl)-L-thioprolyl]-L-prolinal]	120	–	–	–
O=C([C@@H]1CSCN1C(=O)C[C@H]1CCc2ccccc2C1)N1CSC[C@H]1CO [Example 5, 3-[3-((S)-1,2,3,4-tetrahydronaphthalen 2-ylacetyl)-L-thioprolyl]-L-thioprolinol]	115	no death	–	–
O=C([C@@H]1CCCN1C(=O)c1cc2ccccc2o1)N1CCC[C@H]1CO [Example 6, 1-[1-(benzofuran-2-ylcarbonyl)-L-prolyl]-L-prolinol]	128	–	–	–
O=C[C@@H]1CSCN1C(=O)[C@@H]1CCCN1C(=O)CC1Cc2ccccc2C1 [Example 8, 3-[1-(indan-2-ylacetyl)-L-prolyl]-L-thioprolinal]	120	no death	0.0012	–
O=C[C@@H]1CCCN1C(=O)[C@@H]1CSCN1C(=O)C[C@H]1CCc2ccccc2C1 [Example 9, 1-[3-((S)-1,2,3,4-tetrahydronaphthalen-2-ylacetyl)-L-thioprolyl]-L-prolinal]	123	–	–	death within 7 days (oral) [4]: no death
O=C[C@@H]1CSCN1C(=O)[C@@H]1CSCN1C(=O)C[C@H]1CCc2ccccc2C1 [Example 10, 3-[3-((S)-1,2,3,4-tetrahydronaphthalen-2-ylacetyl)-L-thioprolyl]-L-thioprolinal]	129	–	0.0014	–
O=C[C@@H]1CCCN1C(=O)[C@@H]1CCCN1C(=O)c1cc2ccccc2o1 [Example 11, 1-[1-(benzofuran-2-ylcarbonyl)-L-prolyl]-L-prolinal]	–	–	0.069	–
O=C[C@@H]1CSCN1C(=O)[C@@H]1CCCN1C(=O)c1cc2ccccc2o1 [Example 12, 3-[1-(benzofuran-2-ylcarbonyl)-L-prolyl]-L-thioprolinal]	–	no death	–	–
O=C([C@@H]1CSCN1C(=O)C[C@H]1CCc2ccccc2C1)N1CCC[C@H]1C=NO [Example 25, (2S)-1-[3-((S)-1,2,3,4-Tetrahydronaphthalen-2-ylacetyl)-L-thioprolyl]-2-pyrrolidine aldoxime]	–	–	0.016	–
